Test results as given in paper PMC11062899, “De novo development of small cyclic peptides that are orally bioavailable” (Nature Chemical Biology, 2023).
Values joined by “and” are separate entries in the source; they are usually repeats but may differ in a detail not shown here. Equal entries are not always repeated. Where two headings read alike, the source gives them in different places. Square brackets hold non-standard residues; d marks the D form. Peptide text beside a SMILES is read from it. NMeY = CN[C@@H](Cc1ccc(O)cc1)C(=O)O; NMeL = CN[C@@H](CC(C)C)C(=O)O; dNMeL = CN[C@H](CC(C)C)C(=O)O

Key:
[1] = cited from earlier work
[2] = Metabolic stability in rat liver microsomes (RLMs); settings: for half-life at 10 μM / microsomal CLint at 10 μM / microsomal CLint / half-life: rat; for microsomal CLint / half-life: microsomes
porcine pepsin = target: T1, porcine pepsin (Sus scrofa, UniProt P00791); test: Peptide stability in simulated gastric fluid (SGF); type: in vitro ADME; design: remaining at 8 h: dose or concentration left out as unconfirmed; settings: for remaining at 8 h: 37 °C, pH 1.2, read-out: Proteolytic stability: SGF (8 h) % remaining
T1 construct: 0.32 g of porcine pepsin (Sigma-Aldrich, P7125) was dissolved under gentle agitation; purchased Sigma-Aldrich P7125
Method in brief: (§1)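 Peptide from a 1 mM DMSO stock was added to fluid pre-warmed at 37 °C. SGF was pH 1.2 NaCl with porcine pepsin (0.32 g per 100 ml), and SIF was pH 6.8 potassium phosphate with porcine pancreatin (1 g per 100 ml). Supernatant peptide was quantified by LC–MS, with residual expressed as T1/T0.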

porcine pancreatin = test: Peptide stability in simulated intestinal fluid (SIF); type: in vitro ADME; design: remaining at 8 h: dose or concentration left out as unconfirmed
Method in brief: as §1

in vivo = settings: male, Wistar Han, rat
Protocol: Male Wistar Han rats (250–350 g) obtained at an age of 9–10 weeks from Charles River Laboratories were used for the studies and kept in housing groups of two or three. Experiments were performed at the age of 10–11 weeks. Intravenous (i.v.) administrations were carried out using tail vein injections. Peptides were dissolved in pure DMSO and diluted with 5% Cremophor EL in water (5% DMSO final) at a concentration of 0.5 mg ml^−1. I.v. administration was carried out at a dose of 1 mg kg^−1 body weight via the left lateral tail vein of rats (n = 3) using an Insyte-W 24 G × 0.75 in. (0.7 mm × 19 mm) temporary peripheral venous catheter (BD Biosciences, 381312). Before injecting the peptide solution, a correct placement of the catheter was confirmed by an apparent reflux of blood through the catheter. Orally (p.o.) administrated peptides were dissolved in DMSO and diluted with 10% Cremophor EL in water (5% DMSO final) at a concentration of 1 mg ml^−1 and administrated by oral gavage to rats (n = 3) at a dose of 10 mg kg^−1. Rats used for oral administration were fasted overnight for 14 h and provided access to food again 2 h after administration, whereas access to water was not restricted throughout the whole experimental procedure. Volumes of 100 μl of blood samples were collected via the right lateral tail vein at different timepoints after i.v. or p.o. administration into heparinized tubes (Sarstedt, 20.1282); the samples were stored on ice for up to 4 h; and plasma was obtained by centrifugation at 2,000g for 5 min at 4 °C. A volume of 40 μl of plasma was added to 120 μl of an acetonitrile:water (9:1) solution containing an internal standard (5 μg ml^−1). Samples were vortexed for 10 s and sonicated for 10 min, and precipitated plasma proteins were pelleted by centrifugation at 16,000g for 15 min at 4 °C. Volumes of 120 μl of supernatant were transferred to a new tube, and solvent was evaporated in a rotary vacuum concentrator (RVC 2–33 CDplus IR, Christ) for 2 h at 40 °C. Dried residues were dissolved in 20 μl of a water:acetonitrile (7:3) (v/v) solution, centrifuged at 14,000g for 5 min and analyzed by LC–MS. Peptides were quantified by extracting ion chromatograms corresponding to their respective mass, integrating the area under the peptide peak and calculating the concentrations by normalization to a calibration curve. Calibration curves were prepared by analyzing spiked samples of blood or plasma with known concentrations of peptide. The absolute oral bioavailability was calculated using equation (6).6 F=AUCp.o./AUCi.v.×Dosei.v./Dosep.o.×100 where AUCp.o. and AUCi.v. are calculated from a plasma concentration versus time curve using the linear trapezoidal rule, and Dosei.v. and Dosep.o. are the intravenously or orally administrated amount of peptide in mg kg^−1.

human α-thrombin = human α-thrombin (Homo sapiens, UniProt P00734); test: Protease inhibition, Ki for human α-thrombin (fluorogenic substrate Z-Gly-Gly-Arg-AMC); type: biochemical; settings: replicates R1-R3
Method in brief: (§2)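 Ki derived through Cheng–Prusoff from IC50s (four-parameter logistic fit) against activity of peptide-free controls. Product fluorescence was read every 3 min over 30 min at 25 °C, substrate Z-Gly-Gly-Arg-AMC at 50 μM. Enzyme was 2 nM human or 3 nM rat α-thrombin, pH 7.4 buffer.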

rat α-thrombin = target: T2, rat α-thrombin (Rattus norvegicus, UniProt P18292); test: Protease inhibition, Ki for rat α-thrombin (fluorogenic substrate Z-Gly-Gly-Arg-AMC); type: biochemical; settings: replicates R1-R3
T2 construct: rat α-thrombin (Molecular Innovations) were used at final concentrations of 2 nM and 3 nM; purchased Molecular Innovations
Method in brief: as §2

[3] = Peptide stability in simulated intestinal fluid (SIF); type: in vitro ADME, porcine; design: remaining at 8 h: dose or concentration left out as unconfirmed; settings: simulated gi fluid; 8 h, 37 °C, pH 6.8; read-out: Proteolytic stability: SIF (8 h) % remaining
Method in brief: as §1

[4] = Passive artificial membrane permeability (PAMPA)
[5] = rat liver microsomes, pH 7.4, Metabolic stability: Half life T1/2 (min), RLMs, mean and SD, three measurements
[6] = rat liver microsomes, pH 7.4, Metabolic stability: RLM CL (ul/min/mg), RLMs, mean and SD, three measurements
[7] = peptide 1.33E+02 uM, slope of proteolytic substrate cleavage over time
[8] = after 8 h vs 0 h (TIC), average of R1-R3
[9] = after 8 h vs 0 h (TIC), single replicates R1-R3

T1 sequence (P00791 60-385): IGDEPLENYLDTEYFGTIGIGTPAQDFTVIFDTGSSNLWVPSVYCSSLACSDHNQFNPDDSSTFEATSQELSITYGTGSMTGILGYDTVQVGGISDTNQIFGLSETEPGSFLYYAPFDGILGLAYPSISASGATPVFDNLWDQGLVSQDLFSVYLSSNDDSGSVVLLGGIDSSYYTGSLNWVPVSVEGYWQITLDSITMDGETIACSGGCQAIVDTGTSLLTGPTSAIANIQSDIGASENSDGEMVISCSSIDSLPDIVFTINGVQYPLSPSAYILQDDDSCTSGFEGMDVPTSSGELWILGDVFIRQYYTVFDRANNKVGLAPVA

For COc1ccc([C@@H]2Sc3ccccc3N(CCN(C)C)C(=O)[C@@H]2OC(C)=O)cc1 [Diltiazem, diltiazem, reference compound], the “metabolic clearance in humans” value [1] is listed as “around 15 ml min^−1 kg^−1”, the “Half Life” value ([2]; rat liver microsomes, individual replicates R1-R3) is listed as 12.36 min and the “RLM CL” value ([2]; rat liver microsomes, individual replicates R1-R3, incubation volume 400 ul, protein 0.5 mg/ml) is listed as 112.14 ul/min/mg protein. For the same compound, the half-life at 10 μM ([2]; rat liver microsomes, pH 7.4, Half Life Mean, mean of R1-R3) was 13.4 min, the half-life at 10 μM ([2]; rat liver microsomes, pH 7.4, Half Life, individual replicates R1-R3) was 14.9 min and the half-life at 10 μM [2, 5] was 13.4 ± 1.1 min. It also gave a microsomal CLint at 10 μM [2, 6] of 104 ± 8 µL/min/mg, a microsomal CLint at 10 μM ([2]; rat liver microsomes, pH 7.4, RLM CL Mean, mean of R1-R3) of 104 µL/min/mg and a microsomal CLint at 10 μM ([2]; rat liver microsomes, pH 7.4, RLM CL, individual replicates R1-R3, incubation volume 400 ul, protein 0.5 mg/ml) of 93 µL/min/mg.

In the case of CC(C)C[C@@H]1NC(=O)[C@H](Cc2ccc(O)cc2)N(C)C(=O)[C@H]2CCCN2C(=O)[C@H](CC(C)C)NC(=O)[C@H](CC(C)C)N(C)C(=O)[C@@H](CC(C)C)N(C)C1=O [1NMe3, reference compound] (cyclo(L[dNMeL][NMeL]L[dP][NMeY])), the remaining at 8 h (porcine pepsin; pig, simulated gastric fluid (SGF) with porcine pepsin) is reported as 93 ± 12%, the remaining at 8 h (porcine pancreatin; pig, simulated intestinal fluid (SIF) with porcine pancreatin, 8 h, 37 °C, pH 6.8, read-out: Proteolytic stability: SIF (8 h) % remaining) is reported as 98 ± 6% and the bioavailability (in vivo) is reported as 27 ± 4%. The half-life (in vivo; iv) was 110 min, the half-life at 10 μM [2, 5] was 193 ± 42 min and the microsomal CLint at 10 μM [2, 6] was 7.6 ± 1.9 µL/min/mg.

In the case of O=C1CCSCc2cccc(n2)CSCCNC(=O)[C@H](CO)NC(=O)[C@@H](NC(=O)c2ccc(Cl)s2)CN1 [compound 17], the “Human alpha thrombin inhibition, slope normalized to DMSO” value (human α-thrombin; peptide 1.02E-03 uM) is reported as 90.3 and 94.2 and 97.4, the “Human alpha thrombin inhibition, slope normalized to DMSO” value (human α-thrombin; peptide 1.04E+00 uM) is reported as 86.6 and 86.7 and 88.9 and the “Human alpha thrombin inhibition, slope normalized to DMSO” value (human α-thrombin; peptide 1.27E-04 uM) is reported as 98.6 and 95.2 and 97.6. For the same compound, the “Human alpha thrombin inhibition, slope normalized to DMSO” value (human α-thrombin; peptide 1.30E-01 uM) was 95.9 and 91.0 and 95.3, the “Human alpha thrombin inhibition, slope normalized to DMSO” value (human α-thrombin; [7]) was 25.3 and 29.1 and 30.1 and the “Human alpha thrombin inhibition, slope normalized to DMSO” value (human α-thrombin; peptide 1.63E-02 uM) was 109.1 and 94.1 and 96.6. The “Human alpha thrombin inhibition, slope normalized to DMSO” value (human α-thrombin; peptide 1.67E+01 uM) was 56.0 and 55.9 and 56.8, the “Human alpha thrombin inhibition, slope normalized to DMSO” value (human α-thrombin; peptide 2.03E-03 uM) was 98.0 and 93.9 and 96.6 and the “Human alpha thrombin inhibition, slope normalized to DMSO” value (human α-thrombin; peptide 2.08E+00 uM) was 93.5 and 81.6 and 87.4. The “Human alpha thrombin inhibition, slope normalized to DMSO” value (human α-thrombin; peptide 2.54E-04 uM) was 96.9 and 93.2 and 95.5, the “Human alpha thrombin inhibition, slope normalized to DMSO” value (human α-thrombin; peptide 2.60E-01 uM) was 93.6 and 91.3 and 95.4 and the “Human alpha thrombin inhibition, slope normalized to DMSO” value (human α-thrombin; peptide 3.18E-05 uM) was 97.0 and 94.8 and 95.7. The “Human alpha thrombin inhibition, slope normalized to DMSO” value (human α-thrombin; peptide 3.26E-02 uM) was 97.9 and 92.8 and 96.6, the “Human alpha thrombin inhibition, slope normalized to DMSO” value (human α-thrombin; peptide 3.33E+01 uM) was 44.0 and 43.7 and 42.6 and the “Human alpha thrombin inhibition, slope normalized to DMSO” value (human α-thrombin; peptide 4.07E-03 uM) was 98.5 and 94.3 and 98.3. The “Human alpha thrombin inhibition, slope normalized to DMSO” value (human α-thrombin; peptide 4.17E+00 uM) was 81.7 and 78.5 and 82.6, the “Human alpha thrombin inhibition, slope normalized to DMSO” value (human α-thrombin; peptide 5.09E-04 uM) was 98.7 and 85.0 and 98.3 and the “Human alpha thrombin inhibition, slope normalized to DMSO” value (human α-thrombin; peptide 5.21E-01 uM) was 102.0 and 91.0 and 92.1. The “Human alpha thrombin inhibition, slope normalized to DMSO” value (human α-thrombin; peptide 6.36E-05 uM) was 94.5 and 96.0 and 100.7, the “Human alpha thrombin inhibition, slope normalized to DMSO” value (human α-thrombin; peptide 6.51E-02 uM) was 96.7 and 92.1 and 95.5 and the “Human alpha thrombin inhibition, slope normalized to DMSO” value (human α-thrombin; peptide 6.67E+01 uM) was 31.6 and 30.0 and 31.3. The “Human alpha thrombin inhibition, slope normalized to DMSO” value (human α-thrombin; peptide 8.14E-03 uM) was 98.1 and 93.7 and 96.2, the “Human alpha thrombin inhibition, slope normalized to DMSO” value (human α-thrombin; peptide 8.33E+00 uM) was 74.6 and 70.2 and 71.4 and the “Rat alpha thrombin inhibition, slope normalized to DMSO” value (rat α-thrombin; [7]) was 11.3 and 13.8 and 8.3. The “Rat alpha thrombin inhibition, slope normalized to DMSO” value (rat α-thrombin; peptide 1.67E+01 uM) was 29.0 and 30.7 and 41.4, the “Rat alpha thrombin inhibition, slope normalized to DMSO” value (rat α-thrombin; peptide 2.08E+00 uM) was 79.8 and 81.7 and 85.5 and the “Rat alpha thrombin inhibition, slope normalized to DMSO” value (rat α-thrombin; peptide 3.33E+01 uM) was 17.9 and 19.2 and 22.6. For the same compound, the “Rat alpha thrombin inhibition, slope normalized to DMSO” value (rat α-thrombin; peptide 4.17E+00 uM) was 59.7 and 62.6 and 71.9, the “Rat alpha thrombin inhibition, slope normalized to DMSO” value (rat α-thrombin; peptide 6.67E+01 uM) was 10.8 and 11.8 and 26.2 and the “Rat alpha thrombin inhibition, slope normalized to DMSO” value (rat α-thrombin; peptide 8.33E+00 uM) was 44.9 and 46.7 and 59.3. For the same compound, the “SGF stability, Residual peptide Average” value (porcine pepsin; [8]) was 97.83, the “SGF stability, Residual peptide” value (porcine pepsin; [9]) was 97.70 and 100.05 and 95.74 and the remaining at 8 h (porcine pepsin; simulated gi fluid) was 98 ± 2%. For the same compound, the remaining at 8 h [3] was 92 ± 9%, the “SIF stability, Residual peptide Average” value (porcine pancreatin; [8]) was 91.77 and the “SIF stability, Residual peptide” value (porcine pancreatin; [9]) was 101.93 and 87.06 and 86.31. The “PAMPA permeability: % permeability” value ([4]; 50 μM, 12–18 h, acceptor concentration relative to equilibrium) was 0.86 ± 0.09%, the Papp at 50 μM ([4]; PAMPA, pH 7.4) was 0.0575 ×10⁻⁶ cm/s and the “Permeability% Average” value ([4]; PAMPA, average of R1-R3) was 0.9%. For the same compound, the “Permeability% R1” value ([4]; PAMPA, replicate R1, TIC of top well sample relative to sample at theoretical equilibrium) was 0.87%, the “Permeability% R3” value ([4]; PAMPA, replicate R3, TIC of top well sample relative to sample at theoretical equilibrium) was 0.95% and the microsomal CLint ([2]; CL (ul/min/mg protein) R1, RLM CL, replicate R1) was 149 µL/min/mg. The microsomal CLint ([2]; CL (ul/min/mg protein) R2, RLM CL, replicate R2) was 98.2 µL/min/mg, the microsomal CLint ([2]; CL (ul/min/mg protein) R3, RLM CL, replicate R3) was 109 µL/min/mg and the half-life ([2]; Half Life (min) R1, RLM metabolic stability, replicate R1, 0-60 min) was 9.3 min. The half-life ([2]; Half Life (min) R2, RLM metabolic stability, replicate R2, 0-60 min) was 14.1 min, the half-life ([2]; Half Life (min) R3, RLM metabolic stability, replicate R3, 0-60 min) was 12.7 min and the half-life ([2]; Metabolic stability: Half life T1/2 (min), RLMs, mean and SD, three measurements) was 12.1 ± 2 min. The microsomal CLint ([2]; Metabolic stability: RLM CL (ul/min/mg), RLMs, mean and SD, three measurements) was 119 ± 22 µL/min/mg.
